Test results from patent publication US8404844B2, “Perylene semiconductors and methods of preparation and use thereof” (BASF SE, priority 2008, dated 2013).
≈ marks a conversion by molar mass, not a printed value.

Columns and labels:
[1] = Cyclic voltammetry (reduction potential); type: physicochemical; conditions: 0.1 M THF/TBAPF6, under N2, bare Ag reference electrode, scan 60-150 mV/s
Method: Cyclic voltammetry experiments were conducted using an Epsilon single-channel […] and a BAS C3 cell stand (a one-compartment cell with a C disk working electrode, a bare Ag reference electrode, and a Pt wire counter electrode). Appropriate precautions were taken to eliminate water and oxygen during measurement. All measurements were performed under N2 by dissolving the compound (1-3 mg) in a 0.1 M THF/TBAPF6 solutions with scanning rates between 60-150 mV/s. When the voltammograms are (quasi)reversible, it is possible to extract formal potentials (E^1/2) as the midpoints between peak potentials for the forward and reverse scans.
Table 1 summarizes certain physical and electrical properties of some compounds of the present teachings, including Ered values obtained from the cyclic voltammetry experiments. N,N′-Bis(4-n-octyl)-1,7-dicyanoperylene-3,4:9,10-bis(dicarboximide) (PDI8-CN2), N,N′-bis[(3S)-3,7-dimethyl-6-octenyl]-1,7-dicyanoperylene-3,4:9,10-bis(dicarboximide) (PDICitr-CN2), N,N′-bis(2-ethylhexyl)-1,7-dicyanoperylene-3,4:9,10-bis(dicarboximide) (PDI2EH-CN2), and N,N′-bis(2-methylhexyl)-1,7-dicyanoperylene-3,4:9,10-bis(dicarboximide) (PDI2MH-CN2) were included as comparative representative compounds.

[2] = Solubility in organic solvents; type: physicochemical; conditions: for Solubility CHCl3: chloroform; for Solubility DCB: dichlorobenzene (DCB); for Solubility compared to similar compounds: compared to PDI8-CN2, PDI2EH-CN2, PDICitr-CN2 and PDI2MH-CN2
Method: As certain embodiments of the compounds disclosed herein can be soluble in common solvents, the present teachings can offer processing advantages in fabricating electrical devices such as thin film semiconductors, field-effect devices, organic light emitting diodes (OLEDs), organic photovoltaics, photodetectors, capacitors, and sensors. As used herein, a compound can be considered soluble in a solvent when at least 1 mg of the compound can be dissolved in 1 mL of the solvent. Examples of common organic solvents include petroleum ethers; acetonitrile; aromatic hydrocarbons such as benzene, toluene, xylene, and mesitylene; ketones such as acetone and methyl ethyl ketone; ethers such as tetrahydrofuran, dioxane, bis(2-methoxyethyl)ether, diethyl ether, di-isopropyl ether, and t-butyl methyl ether; alcohols such as methanol, ethanol, butanol, and isopropyl alcohol; aliphatic hydrocarbons such as hexanes; acetates such as methyl acetate, ethyl acetate, methyl formate, ethyl formate, isopropyl acetate, and butyl acetate; amides such as dimethylformamide and dimethylacetamide; sulfoxides such as dimethylsulfoxide; halogenated aliphatic and aromatic hydrocarbons such as dichloromethane, chloroform, ethylene chloride, chlorobenzene, dichlorobenzene, and trichlorobenzene; and cyclic solvents such as cyclopentanone, cyclohexanone, and 2-methypyrrolidone. Examples of common inorganic solvents include water and ionic liquids.
Greater solubilities (2-10 times) can be achieved using warm solvents.

| SMILES | Ered [1] | Solubility CHCl3 [2] | Solubility DCB [2] | Solubility (DCB, 70° C.) [2] | Solubility compared to similar compounds [2] |
| --- | --- | --- | --- | --- | --- |
| CCCC(CC)N1C(=O)c2ccc3c4c(Br)cc5c6c(ccc(c7c(Br)cc(c2c37)C1=O)c64)C(=O)N(C(CC)CCC)C5=O (stereo not shown) [PDI1EB-Br2, N,N′-bis(1-ethylbutyl)-1,7-dibromoperylene-3,4:9,10-bis(dicarboximide)] | −0.34 V |  |  |  |  |
| CCCC(CC)N1C(=O)c2ccc3c4c(C#N)cc5c6c(ccc(c7c(C#N)cc(c2c37)C1=O)c64)C(=O)N(C(CC)CCC)C5=O (stereo not shown) [PDI1EB-CN2, N,N′-bis(1-ethylbutyl)-1,7-dicyanoperylene-3,4:9,10-bis(dicarboximide)] | −0.106 V | 8000 µg/mL (≈ 13.1 mM) | 10000 µg/mL (≈ 16.4 mM) |  |  |
| CCC(CC)N1C(=O)c2ccc3c4c(Br)cc5c6c(ccc(c7c(Br)cc(c2c37)C1=O)c64)C(=O)N(C(CC)CC)C5=O [PDI1EPr-Br2, N,N′-bis(1-ethylpropyl)-1,7-dibromoperylene-3,4:9,10-bis(dicarboximide)] | −0.38 V |  |  |  |  |
| CCC(CC)N1C(=O)c2ccc3c4c(C#N)cc5c6c(ccc(c7c(C#N)cc(c2c37)C1=O)c64)C(=O)N(C(CC)CC)C5=O [PDI1EPr-CN2, N,N′-bis(1-ethylpropyl)-1,7-dicyanoperylene-3,4:9,10-bis(dicarboximide)] | −0.101 V |  | 10000 µg/mL (≈ 17.2 mM) |  |  |
| CC(C)CC(C)N1C(=O)c2ccc3c4c(Br)cc5c6c(ccc(c7c(Br)cc(c2c37)C1=O)c64)C(=O)N(C(C)CC(C)C)C5=O (stereo not shown) [PDI1M3MB-Br2, N,N′-bis(1,3-dimethylbutyl)-1,7-dibromoperylene-3,4:9,10-bis(dicarboximide)] | −0.39 V |  |  |  |  |
| CC(C)CC(C)N1C(=O)c2ccc3c4c(C#N)cc5c6c(ccc(c7c(C#N)cc(c2c37)C1=O)c64)C(=O)N(C(C)CC(C)C)C5=O (stereo not shown) [PDI1M3MB-CN2, N,N′-bis(1,3-dimethylbutyl)-1,7-dicyanoperylene-3,4:9,10-bis(dicarboximide)] | −0.088 V | 30000 µg/mL (≈ 49.3 mM) | 37000 µg/mL (≈ 60.8 mM) | 37100 µg/mL (≈ 60.9 mM) | unexpected increase in solubility |
| CCCC(C)N1C(=O)c2ccc3c4c(Br)cc5c6c(ccc(c7c(Br)cc(c2c37)C1=O)c64)C(=O)N(C(C)CCC)C5=O (stereo not shown) [PDI1MB-Br2, N,N′-bis(1-methylbutyl)-1,7-dibromoperylene-3,4:9,10-bis(dicarboximide)] | −0.39 V |  |  |  |  |
| CCCC(C)N1C(=O)c2ccc3c4c(C#N)cc5c6c(ccc(c7c(C#N)cc(c2c37)C1=O)c64)C(=O)N(C(C)CCC)C5=O (stereo not shown) [PDI1MB-CN2, N,N′-bis(1-methylbutyl)-1,7-dicyanoperylene-3,4:9,10-bis(dicarboximide)] | −0.083 V |  | 5000 µg/mL (≈ 8.61 mM) |  |  |
| CCCCCC(C)N1C(=O)c2ccc3c4c(Br)cc5c6c(ccc(c7c(Br)cc(c2c37)C1=O)c64)C(=O)N(C(C)CCCCC)C5=O (stereo not shown) [PDI1MH-Br2, N,N′-bis(1-methylhexyl)-1,7-dibromoperylene-3,4:9,10-bis(dicarboximide)] | −0.38 V |  |  |  |  |
| CCCCCC(C)N1C(=O)c2ccc3c4c(C#N)cc5c6c(ccc(c7c(C#N)cc(c2c37)C1=O)c64)C(=O)N(C(C)CCCCC)C5=O (stereo not shown) [PDI1MH-CN2, N,N′-bis(1-methylhexyl)-1,7-dicyanoperylene-3,4:9,10-bis(dicarboximide)] | −0.094 V | 54000 µg/mL (≈ 84.8 mM) | 52000 µg/mL (≈ 81.7 mM) |  | unexpected increase in solubility |
| CCCCC(C)N1C(=O)c2ccc3c4c(Br)cc5c6c(ccc(c7c(Br)cc(c2c37)C1=O)c64)C(=O)N(C(C)CCCC)C5=O (stereo not shown) [PDI1MP-Br2, N,N′-bis(1-methylpentyl)-1,7-dibromoperylene-3,4:9,10-bis(dicarboximide)] | −0.41 V |  |  |  |  |
| CCCCC(C)N1C(=O)c2ccc3c4c(C#N)cc5c6c(ccc(c7c(C#N)cc(c2c37)C1=O)c64)C(=O)N(C(C)CCCC)C5=O (stereo not shown) [PDI1MP-CN2, N,N′-bis(1-methylpentyl)-1,7-dicyanoperylene-3,4:9,10-bis(dicarboximide)] | −0.071 V | 43000 µg/mL (≈ 70.6 mM) | 40000 µg/mL (≈ 65.7 mM) | 41800 µg/mL (≈ 68.7 mM) | unexpected increase in solubility |
| CCC(C)N1C(=O)c2ccc3c4c(Br)cc5c6c(ccc(c7c(Br)cc(c2c37)C1=O)c64)C(=O)N(C(C)CC)C5=O (stereo not shown) [PDI1MPr-Br2, N,N′-bis(1-methylpropyl)-1,7-dibromoperylene-3,4:9,10-bis(dicarboximide)] | −0.40 V |  |  |  |  |
| CCC(C)N1C(=O)c2ccc3c4c(C#N)cc5c6c(ccc(c7c(C#N)cc(c2c37)C1=O)c64)C(=O)N(C(C)CC)C5=O (stereo not shown) [PDI1MPr-CN2, N,N′-bis(1-methylpropyl)-1,7-dicyanoperylene-3,4:9,10-bis(dicarboximide)] | −0.091 V |  | 8000 µg/mL (≈ 14.5 mM) |  |  |
| CCCCC(CC)CN1C(=O)c2ccc3c4c(C#N)cc5c6c(ccc(c7c(C#N)cc(c2c37)C1=O)c64)C(=O)N(CC(CC)CCCC)C5=O (stereo not shown) [PDI2EH-CN2, N,N′-bis(2-ethylhexyl)-1,7-dicyanoperylene-3,4:9,10-bis(dicarboximide), reference compound] | −0.130 V | 5000 µg/mL (≈ 7.52 mM) | 5000 µg/mL (≈ 7.52 mM) |  |  |
| CCCCC(C)CN1C(=O)c2ccc3c4c(C#N)cc5c6c(ccc(c7c(C#N)cc(c2c37)C1=O)c64)C(=O)N(CC(C)CCCC)C5=O (stereo not shown) [PDI2MH-CN2, N,N′-bis(2-methylhexyl)-1,7-dicyanoperylene-3,4:9,10-bis(dicarboximide), reference compound] | −0.120 V |  | 5000 µg/mL (≈ 7.85 mM) |  |  |
| CCCCCCCCN1C(=O)c2ccc3c4c(C#N)cc5c6c(ccc(c7c(C#N)cc(c2c37)C1=O)c64)C(=O)N(CCCCCCCC)C5=O [PDI8-CN2, N,N′-Bis(4-n-octyl)-1,7-dicyanoperylene-3,4:9,10-bis(dicarboximide), reference compound] | −0.150 V | 4000 µg/mL (≈ 6.02 mM) | 4000 µg/mL (≈ 6.02 mM) |  |  |
| CC(C)=CCC[C@H](C)CCN1C(=O)c2ccc3c4c(C#N)cc5c6c(ccc(c7c(C#N)cc(c2c37)C1=O)c64)C(=O)N(CC[C@@H](C)CCC=C(C)C)C5=O [PDICitr-CN2, N,N′-bis[(3S)-3,7-dimethyl-6-octenyl]-1,7-dicyanoperylene-3,4:9,10-bis(dicarboximide), reference compound] | −0.142 V |  | 8000 µg/mL (≈ 11.2 mM) |  |  |
